# Results published in US20240279236A1, “COMPOUNDS AND METHODS OF TREATING TUBERCULOSIS” (Fimbrion Therapeutics, Inc., priority 2021, published 2024).
# System: WT Mtb Erdman strain
# Test: Microplate Alamar Blue Assay (MABA), Mtb growth inhibition
# Assay type: cell-based, Mycobacterium tuberculosis
# Details: Mycobacterium tuberculosis, ERDMAN, 168 h, Middlebrook 7H9 media, 7 days at 37° C. in 5% CO2
row,SMILES,IC50 [µM]
1,"CCc1nc(NCCCc2ccc(-c3c(Cl)cccc3Cl)cc2)c2cc(C)sc2n1 [Example 307, N-(3-(2′,6′-dichloro-[1,1′-biphenyl]-4-yl)propyl)-2-ethyl-6-methylthieno[2,3-d]pyrimidin-4-amine]",0.83
2,"CCc1nc(NCCCn2cccn2)c2cc(C)sc2n1 [Example 197, N-(3-(1H-pyrazol-1-yl)propyl)-2-ethyl-6-methylthieno[2,3-d]pyrimidin-4-amine]",8.2
3,"Cc1cc2c(NCCCc3ccc(-c4ccc(C(F)(F)F)cn4)cc3)nc(N(C)C)nc2s1 [Example 557, N2,N2,6-trimethyl-N4-(3-(4-[5-(trifluoromethyl)pyridin-2-yl]phenyl)propyl)thieno[2,3-d]pyrimidine-2,4-diamine]",< 0.004
4,"Cc1cc2c(NCCCc3ccccc3C)nc(C(F)(F)F)nc2s1 [Example 247, 6-methyl-N-(3-(o-tolyl)propyl)-2-(trifluoromethyl) thieno[2,3-d] pyrimidin-4-amine]",1.4
5,"Cc1cc2c(NCCCc3ccccc3)nc(N3CCC(F)(F)C3)nc2s1 [Example 513, 2-(3,3-difluoropyrrolidin-1-yl)-6-methyl-N-(3-phenylpropyl)thieno[2,3-d]pyrimidin-4-amine]",0.23
6,"CCc1nc(NCCOc2ccc(OC)cc2)c2cc(C)sc2n1 [Example 40, 2-ethyl-N-(2-(4-methoxyphenoxy)ethyl)-6-methylthieno[2,3-d]pyrimidin-4-amine]",3.6
7,"Cc1cc2c(NCCCc3ccccc3)nc(-c3cccc(Cl)c3)nc2s1 [Example 91, 2-(3-chlorophenyl)-6-methyl-N-(3-phenylpropyl)thieno [2,3-d]pyrimidin-4-amine]",5.9
8,"CCc1nc(NCCCc2ccc(-c3ccc(OC)cc3)cc2)c2cc(C)sc2n1 [Example 274, 2-ethyl-N-(3-(4′-methoxy-[1,1′-biphenyl]-4-yl)propyl)-6-methylthieno[2,3-d]pyrimidin-4-amine]",0.076
9,"Cc1cc2c(NCCCc3ccccc3)nc(-c3nnc[nH]3)nc2s1 [Example 129, 6-methyl-N-(3-phenylpropyl)-2-(4H-1,2,4-triazol-3-yl)thieno[2,3-d]pyrimidin-4-amine]",5.6
10,"Cc1cc2c(NCCCc3ccc(-c4ccc(C(F)(F)F)cc4)cc3)nc(-c3ccoc3)nc2s1 [Example 339, 2-(furan-3-yl)-6-methyl-N-(3-[4′-(trifluoromethyl)-[1,1′-biphenyl]-4-yl]propyl)thieno [2,3-d]pyrimidin-4-amine]",< 0.015
11,"Cc1cc2c(NCCCc3ccc(-c4ccc(OC(F)(F)F)cc4)cc3)nc(Cl)nc2s1 [Example 433, 2-chloro-6-methyl-N-(3-(4′-(trifluoromethoxy)-[1,1′-biphenyl]-4-yl)propyl)thieno[2,3-d]pyrimidin-4-amine]",0.054
12,"CCSc1nc(NCCCc2ccc(-c3ccc(OC(F)(F)F)cc3)cc2)c2cc(C)sc2n1 [Example 448, 2-(ethylthio)-6-methyl-N-(3-(4′-(trifluoromethoxy)-[1,1′-biphenyl]-4-yl)propyl)thieno[2,3-d]pyrimidin-4-amine]",0.044
13,"CCc1nc(NCCc2ccc3ccccc3c2)c2cc(C)sc2n1 [Example 10, 2-ethyl-6-methyl-N-(2-(naphthalen-2-yl)ethyl)thieno[2,3-d]pyrimidin-4-amine]",0.45
14,"CNS(=O)(=O)c1ccccc1-c1nc(N[C@@H]2C[C@H]2c2ccc(F)c(F)c2)c2cc(C)sc2n1 [Example 494, 2-(4-(((1R,2S)-2-(3,4-difluorophenyl)cyclopropyl)amino)-6-methylthieno[2,3-d]pyrimidin-2-yl)-N-methylbenzenesulfonamide]",> 10
15,"Cc1cc2c(NCCN3CCN(c4ccccc4)CC3)nc(-c3ccoc3)nc2s1 [Example 209, 2-(furan-3-yl)-6-methyl-N-(2-(4-phenylpiperazin-1-yl)ethyl)thieno[2,3-d]pyrimidin-4-amine]",4.9
16,"Fc1ccc([C@@H]2C[C@H]2Nc2nc(Cl)nc3scnc23)cc1F [Example 221, 5-chloro-N-((1R,2S)-2-(3,4-difluorophenyl)cyclopropyl)thiazolo [5,4-d]pyrimidin-7-amine]",> 10
